# In patent US7201899B2, “Materials and methods for management of hyperacute rejection in human xenotransplantation” (BresaGen Limited, priority 1994, dated 2007):
# System: porcine cells (PAE's and PK1's)
# Test: Complement-mediated lysis of porcine cells (51CR release and LDH release assays)
# Format: cell-based
# Details: effective sugar concentrations covered about 10 mM
# Experimental: The ability of human serum to cause the lysis of porcine cells was examined using both pig epithelial (PK1) and aortic endothelial (PAE's) cells, the isolation and culture of which is described in Example 2. Cell lysis was determined using either the ^51Chromium release assay as described by Cerottini and Brunner, Nature New Biol. 237:272, 1972 or the Cytotox LDH release assay according to the manufacturer's instructions (Promega, USA).
# A. ^51CR Release Assay • 1. Preparation of Cells: • a) Trypsinize a confluent flask of cells. On average, approximately 3×10^6 PAE's and approximately 3×10^7 PK1 cells are obtained per 10 ml flask. About 1×10^5 cells are required for each well in the 5CR Release Assay. • b) Wash cells […] in 10 ml RPMI (no FCS); spin 1200 rpm for 5 min. • c) Resuspend cells in 100 μl RPMI (with 10% heat-inactivated FCS; see below). • 2. […]
structure (smiles),measurement,value
"O=C[C@H](O)[C@@H](O)[C@H](O)[C@H](O)CO[C@H]1O[C@H](CO)[C@H](O)[C@H](O)[C@H]1O [Melibiose, 6-O-α-D-galactopyranosyl-D-glucose]",protection of porcine cells from complement-induced lysis,protects the porcine cells from lysis
